System: HIV-1
Details: cMAGI/MAGI cells; for IC50: 50% reduction in infectious virus titer; for IC90: 90% reduction in infectious virus titer
From the text: The number of stained nuclei can thus be interpreted as equal to the number of infectious virions in the challenge inoculum if there is only one round of infection prior to staining.

Substance | IC50 | IC90
Pegylated T20 with PEG10K-butanoaldehyde [Example 2] | 0.266 µg/mL | 2.536 µg/mL
Pegylated T20 with mPEG10k-propionaldehyde [Example 3] | 0.261 µg/mL | 3.074 µg/mL

From patent US7049415B2 (priority 2002, dated 2006)
